Reference: US20240309018A1, “THIAZOLE-LACTAM-SPIROHETEROCYCLIC COMPOUNDS AND APPLICATIONS THEREOF” (D3 BIO (WUXI) CO., LTD, priority 2021, published 2024)
Converted amounts (≈) assume the structure as drawn. Read-outs that look alike come from different tables or passages of the source.

Key:
human plasma albumin = experiment: Plasma protein binding (ultracentrifugation), human; format: in vitro ADME; further: tested at 0.2 µM
Procedure: (§1) The binding degree of the assay compound to human/mouse/rat/canine/monkey plasma albumin was studied.
(§2) • 1) Matrix preparation: on the day of the assay, plasma was thawed in cold water and centrifuged at 3220 rpm for 5 min to remove all clots. The pH of the resulting plasma was measured and adjusted to 7.4±0.1 using 1% phosphoric acid or IN sodium hydroxide as needed. • 2) Dilution procedure for the assay compound: the assay compound was dissolved in dimethyl sulfoxide (DMSO) to prepare stock solutions with concentrations of 10 mM and 2 mM, respectively. A 40 μM working solution was prepared by diluting 2 μL of stock solution (2 mM) with 98 μL of DMSO. A 400 μM working solution of the control compound was prepared by diluting 10 μL of stock solution with 240 μL of DMSO. The working solution of the compound (5 μL) was mixed well with a blank matrix (995 μL) at a ratio of 1:200 to prepare a loading matrix.
(§3) • a) An equal volume of 30 μL of loading matrix (n=2) was transferred to a sample collection plate to prepare a time 0 (TO) sample for residue determination. The sample was immediately matched with the corresponding blank buffer to a final volume of 60 μL, and the volume ratio of plasma to buffer in each well was 1:1. […] The mixture was centrifuged at 4000 rpm for 20 min and 100 μL of supernatant from each sample was analyzed by LC-MS/MS.

[1] = In vivo PK study in cynomolgus monkeys; design: species or system cynomolgus monkey; details: male cynomolgus monkeys
Procedure: Male cynomolgus monkeys were used as assay animals. After a single administration, the plasma concentration of the compound was measured and the pharmacokinetic behavior was evaluated.
Five healthy adult male cynomolgus monkeys were selected, wherein 2 animals were in an intravenous injection group, and 3 animals were in an oral group. The vehicle in the intravenous injection group was 5% DMSO+95% (20% HP-β-CD). The compound to be assayed was mixed with an appropriate amount of vehicle for intravenous injection, and dissolved with stirring to prepare a clear solution of 0.4 mg/mL. The clear solution was filtered by a microporous membrane, and then ready for use. The vehicle in the oral group was 5% DMSO+95% (20% HP-β-CD). The compound to be assayed was mixed with the vehicle, and dissolved with stirring to prepare a solution of 0.3 mg/mL. Cynomolgus monkeys were administered 1 mg/kg intravenously or 3 mg/kg orally, and then whole blood was collected for a certain period. Plasma was prepared. The drug concentration was analyzed by LC-MS/MS method, and the pharmacokinetic parameters were calculated by Phoenix WinNonlin software (Pharsight, USA).

monkey plasma albumin = experiment: Plasma protein binding (ultracentrifugation), monkey; format: in vitro ADME; further: tested at 0.2 µM
Procedure: as §1, §2, §3

[2] = Solubility study (HPLC-UV, phosphate buffers); format: physicochemical; details: 25 °C, aqueous buffer, kinetic from dmso stock, 25±2° C., 2% DMSO, theoretical maximum 200 μM
Procedure: The solubility of the compound was determined to evaluate the solubility property of the compound.
• 1) Buffer A (pH 2.0): 50 mM phosphate buffer, pH 2.0; Buffer B (pH 6.5): 50 mM phosphate buffer, pH 6.5: Buffer C (pH 7.4): 50 mM phosphate buffer, pH 7.4; • 2) Preparation of standard solution: • a) 50% acetonitrile solution and 50% buffer solution were mixed to obtain a diluent; • b) 10 mM (10 μL/compound) compound stock solution was added to the diluent (490 μL/compound) to obtain 200 μM detection standard solution; • c) The 200 μM UV detection standard solution was diluted with 10-fold and 200-fold volume of diluents to obtain 20 μM and 1 μM UV standard solutions, respectively; • d) UV standard solutions of 1 μM, 20 µM, and 200 μM were used as standard solutions for solubility assays.
• 1) The compound was dissolved in DMSO to prepare a 10 mM stock solution. […] The pH of the corresponding solubility solutions was 2.0, 6.5 and 7.4, respectively. The theoretical maximum concentration of the assay compound is 200 μM with 2% DMSO; • 3) The plate was shaken in a shaker at room temperature (25±2° C.) at 600 rpm for 24 hours; • 4) 200 μL of the solution was pipetted from the 96-well plate, filtered with suction by a vacuum suction filtration device, and transferred into a new 96-well plate as an assay sample; • 5) The compound concentration was determined using HPLC-UV.
• 6) Three UV standard solutions from low concentration to high concentration (1 μM, 20 μM, 200 μM) were injected into HPLC, and then the assay sample of the compound to be assayed was injected; • 7) The UV chromatographic peaks were integrated, and the solubility of the sample was calculated.

## Cc1cccc(CN2C(=O)c3nc(-c4nc(Nc5ccnn5C)ncc4C)sc3C23COC3)n1 [WX001]
Human plasma albumin
  Plasma protein binding rate (unbound %): 15.9%
[1]; cynomolgus monkey, plasma, intravenous, 1 mg/kg intravenously or 3 mg/kg orally
  clearance: 16.1 mL/min/kg
[1]; cynomolgus monkey, plasma, intravenous, 1 mg/kg intravenously or 3 mg/kg orally, read-out: Vdss
  Vd: 1.98 L/kg
[1]; cynomolgus monkey, plasma, 1 mg/kg intravenously or 3 mg/kg orally
  half-life: 2.41 h
[1]; cynomolgus monkey, plasma, 1 mg/kg intravenously, 3 mg/kg orally, oral bioavailability
  bioavailability: 50%
[1]; cynomolgus monkey, single dose, 1 mg/kg intravenously or 3 mg/kg orally, plasma
  Cmax: 921 nM
[1]; 3 mg/kg orally, AUCPO/Dose
  Oral DNAUC: 1152.35 nM · h/mpk
Monkey plasma albumin
  Plasma protein binding rate (unbound %): 14.2%
[2]; 50 mM phosphate buffer pH 2.0, 24 hours, read-out: Solubility at pH = 2.0
  solubility at 24 h: 200 µM (≈ 94.7 µg/mL)
[2]; 50 mM phosphate buffer pH 6.5, 24 hours, read-out: Solubility at pH = 6.5
  solubility at 24 h: 2.94 µM (≈ 1.4 µg/mL)
[2]; 50 mM phosphate buffer pH 7.4, 24 hours, read-out: Solubility at pH = 7.4
  solubility at 24 h: 2.64 µM (≈ 1.25 µg/mL)
